Assay results published in ChEMBL document CHEMBL3044561, “A rapid access to new coumarinyl chalcone and substituted chromeno[4,3-c]pyrazol-4(1H)-ones and their antibacterial and DPPH radical scavenging activities” (Med Chem Res, 2011).

Assays:
[1] = system: Staphylococcus aureus; assay: Antibacterial activity against Staphylococcus aureus NCTC 7447 at 1 mg/disk after 24 hr by paper disk diffusion method; type: functional
[2] = system: Radical scavenging activity; assay: Antioxidant activity assessed as DPPH free radical scavenging activity after 30 min; type: functional

## GENTAMICIN
[1]
  inhibition zone (IZ): 15 mm

## O=C(/C=C/c1ccccc1)c1c(O)c2ccccc2oc1=O
[2]
  IC50: 2.15 µM
[1]
  diameter of the inhibition zone (DIZ): 10 mm

## O=c1oc2ccccc2c2c1cnn2-c1ccccc1
[1]
  diameter of the inhibition zone (DIZ): 19 mm

## O=C(/C=C/c1ccc([N+](=O)[O-])cc1)c1c(O)c2ccccc2oc1=O
[2]
  IC50: 3.21 µM
[1]
  diameter of the inhibition zone (DIZ): 16 mm

## O=C(/C=C/c1cccc2ccccc12)c1c(O)c2ccccc2oc1=O
[2]
  IC50: 2.39 µM
[1]
  diameter of the inhibition zone (DIZ): 8 mm

## O=c1oc2ccccc2c2[nH]ncc12
[1]
  diameter of the inhibition zone (DIZ): 14 mm

## CN(C)c1ccc(/C=C/C(=O)c2c(O)c3ccccc3oc2=O)cc1
[2]
  IC50: 2.39 µM
[1]
  diameter of the inhibition zone (DIZ): 11 mm

## Cn1ncc2c(=O)oc3ccccc3c21
[1]
  diameter of the inhibition zone (DIZ): 17 mm

## COc1cc(/C=C/C(=O)c2c(O)c3ccccc3oc2=O)cc(OC)c1OC
[2]
  IC50: 2.29 µM
[1]
  diameter of the inhibition zone (DIZ): 11 mm

## O=C(/C=C/c1ccc(F)cc1)c1c(O)c2ccccc2oc1=O
[2]
  IC50: 2.23 µM
[1]
  diameter of the inhibition zone (DIZ): 13 mm

## Cc1ccc(/C=C/C(=O)c2c(O)c3ccccc3oc2=O)cc1
[2]
  IC50: 2.07 µM
[1]
  diameter of the inhibition zone (DIZ): 13 mm

## O=C(/C=C/c1ccc(Br)cc1)c1c(O)c2ccccc2oc1=O
[2]
  IC50: 2.25 µM
[1]
  diameter of the inhibition zone (DIZ): 9 mm

## COc1ccc(/C=C/C(=O)c2c(O)c3ccccc3oc2=O)cc1
[2]
  IC50: 2.81 µM
[1]
  diameter of the inhibition zone (DIZ): 14 mm
